How the values were obtained:
JAK 1 = JAK 1 (Homo sapiens, UniProt P23458); assay: Biochemical potency on JAK1, TR-FRET LANCE Ultra kinase assay (examples 1-99); details: ATP at Km (20 μM), read-out: JAK1 inhibitory activity (pIC50 class) (converted)
Procedure, shortened: (§1)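 Each JAK isoform (human) was tested separately in a peptide-phosphorylation TR-FRET assay at ATP ≈ Km. Eleven compound concentrations, top 20 μM, 5-fold spacing. Values are IC50s from normalized-response curve fits.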

JAK 2 = JAK 2 (Homo sapiens, UniProt O60674); assay: Biochemical potency on JAK2, TR-FRET LANCE Ultra kinase assay (examples 1-99); details: ATP at Km (0.7 μM), read-out: JAK2 inhibitory activity (pIC50 class) (converted)
Procedure, shortened: as §1

JAK 3 = target: T1, JAK 3 (Homo sapiens, UniProt P52333); assay: Biochemical potency on JAK3, TR-FRET LANCE Ultra kinase assay (examples 1-99); details: ATP at Km (0.2 μM), read-out: JAK3 inhibitory activity (pIC50 class) (converted)
T1 sequence (P52333 1-1124): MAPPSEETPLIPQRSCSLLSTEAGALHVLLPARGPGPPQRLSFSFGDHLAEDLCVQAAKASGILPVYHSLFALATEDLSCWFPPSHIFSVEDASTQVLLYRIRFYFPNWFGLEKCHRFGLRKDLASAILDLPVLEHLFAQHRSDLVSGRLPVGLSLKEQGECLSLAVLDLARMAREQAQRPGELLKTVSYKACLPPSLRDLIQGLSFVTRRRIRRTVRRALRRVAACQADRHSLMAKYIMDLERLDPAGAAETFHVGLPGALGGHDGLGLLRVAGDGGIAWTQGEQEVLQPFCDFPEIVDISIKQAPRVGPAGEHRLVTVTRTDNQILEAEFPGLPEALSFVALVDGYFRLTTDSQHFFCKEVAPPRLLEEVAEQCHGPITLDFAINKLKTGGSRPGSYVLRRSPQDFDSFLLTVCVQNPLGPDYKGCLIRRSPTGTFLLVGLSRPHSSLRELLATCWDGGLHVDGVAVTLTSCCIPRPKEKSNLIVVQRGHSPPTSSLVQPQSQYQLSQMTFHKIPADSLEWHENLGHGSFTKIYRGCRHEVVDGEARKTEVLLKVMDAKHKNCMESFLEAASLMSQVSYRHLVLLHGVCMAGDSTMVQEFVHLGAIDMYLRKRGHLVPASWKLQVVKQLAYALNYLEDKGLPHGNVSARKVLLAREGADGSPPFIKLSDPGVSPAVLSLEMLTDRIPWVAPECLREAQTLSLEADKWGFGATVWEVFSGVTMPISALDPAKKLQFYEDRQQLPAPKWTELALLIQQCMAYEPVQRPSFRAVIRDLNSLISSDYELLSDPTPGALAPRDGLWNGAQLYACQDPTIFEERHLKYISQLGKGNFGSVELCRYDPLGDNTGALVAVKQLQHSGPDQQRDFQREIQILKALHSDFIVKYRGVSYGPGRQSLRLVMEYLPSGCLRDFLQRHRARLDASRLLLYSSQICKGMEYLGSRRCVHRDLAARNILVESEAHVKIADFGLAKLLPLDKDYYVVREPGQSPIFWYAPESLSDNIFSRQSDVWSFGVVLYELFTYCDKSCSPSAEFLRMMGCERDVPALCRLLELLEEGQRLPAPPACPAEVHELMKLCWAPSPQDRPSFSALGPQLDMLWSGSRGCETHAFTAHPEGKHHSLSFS
Procedure, shortened: as §1

TYK2 = TYK2 (Homo sapiens, UniProt P29597); assay: Biochemical potency on Tyk2, TR-FRET LANCE Ultra kinase assay (examples 1-99); details: ATP at Km (12 μM), read-out: Tyk2 inhibitory activity (pIC50 class) (converted)
Procedure, shortened: as §1

Chain of JAK 1 (P23458 whole entry, canonical isoform): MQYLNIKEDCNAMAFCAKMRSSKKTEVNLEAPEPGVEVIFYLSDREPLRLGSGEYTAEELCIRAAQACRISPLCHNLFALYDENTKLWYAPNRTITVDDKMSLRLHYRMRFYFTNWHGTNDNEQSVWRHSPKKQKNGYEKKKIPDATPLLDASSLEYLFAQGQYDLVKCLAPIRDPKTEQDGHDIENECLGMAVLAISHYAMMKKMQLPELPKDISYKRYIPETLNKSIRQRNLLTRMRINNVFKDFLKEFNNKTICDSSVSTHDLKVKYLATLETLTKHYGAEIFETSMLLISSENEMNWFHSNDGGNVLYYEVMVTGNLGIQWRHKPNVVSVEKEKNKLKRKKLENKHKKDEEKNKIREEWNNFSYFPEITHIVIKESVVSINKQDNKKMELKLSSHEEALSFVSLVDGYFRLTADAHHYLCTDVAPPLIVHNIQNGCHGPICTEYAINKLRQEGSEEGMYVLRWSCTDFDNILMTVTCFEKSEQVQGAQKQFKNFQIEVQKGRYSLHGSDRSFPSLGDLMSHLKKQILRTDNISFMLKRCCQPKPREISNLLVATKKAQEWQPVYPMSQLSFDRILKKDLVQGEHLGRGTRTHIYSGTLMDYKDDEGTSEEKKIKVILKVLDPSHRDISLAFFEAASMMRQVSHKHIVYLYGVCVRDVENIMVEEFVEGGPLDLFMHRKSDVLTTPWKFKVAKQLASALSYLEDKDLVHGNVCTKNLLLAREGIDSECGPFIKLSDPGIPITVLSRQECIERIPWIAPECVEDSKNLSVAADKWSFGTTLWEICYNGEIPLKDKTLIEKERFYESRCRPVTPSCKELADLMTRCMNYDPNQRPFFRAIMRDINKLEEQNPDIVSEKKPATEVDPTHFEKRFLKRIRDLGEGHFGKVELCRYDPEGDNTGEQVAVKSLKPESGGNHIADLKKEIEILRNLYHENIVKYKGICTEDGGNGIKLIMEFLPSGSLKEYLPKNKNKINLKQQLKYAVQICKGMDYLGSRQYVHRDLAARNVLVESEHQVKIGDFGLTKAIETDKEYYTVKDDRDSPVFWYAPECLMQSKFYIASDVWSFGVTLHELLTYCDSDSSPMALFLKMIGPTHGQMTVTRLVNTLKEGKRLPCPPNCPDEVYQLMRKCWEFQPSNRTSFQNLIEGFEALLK
Chain of TYK2 (P29597 whole entry): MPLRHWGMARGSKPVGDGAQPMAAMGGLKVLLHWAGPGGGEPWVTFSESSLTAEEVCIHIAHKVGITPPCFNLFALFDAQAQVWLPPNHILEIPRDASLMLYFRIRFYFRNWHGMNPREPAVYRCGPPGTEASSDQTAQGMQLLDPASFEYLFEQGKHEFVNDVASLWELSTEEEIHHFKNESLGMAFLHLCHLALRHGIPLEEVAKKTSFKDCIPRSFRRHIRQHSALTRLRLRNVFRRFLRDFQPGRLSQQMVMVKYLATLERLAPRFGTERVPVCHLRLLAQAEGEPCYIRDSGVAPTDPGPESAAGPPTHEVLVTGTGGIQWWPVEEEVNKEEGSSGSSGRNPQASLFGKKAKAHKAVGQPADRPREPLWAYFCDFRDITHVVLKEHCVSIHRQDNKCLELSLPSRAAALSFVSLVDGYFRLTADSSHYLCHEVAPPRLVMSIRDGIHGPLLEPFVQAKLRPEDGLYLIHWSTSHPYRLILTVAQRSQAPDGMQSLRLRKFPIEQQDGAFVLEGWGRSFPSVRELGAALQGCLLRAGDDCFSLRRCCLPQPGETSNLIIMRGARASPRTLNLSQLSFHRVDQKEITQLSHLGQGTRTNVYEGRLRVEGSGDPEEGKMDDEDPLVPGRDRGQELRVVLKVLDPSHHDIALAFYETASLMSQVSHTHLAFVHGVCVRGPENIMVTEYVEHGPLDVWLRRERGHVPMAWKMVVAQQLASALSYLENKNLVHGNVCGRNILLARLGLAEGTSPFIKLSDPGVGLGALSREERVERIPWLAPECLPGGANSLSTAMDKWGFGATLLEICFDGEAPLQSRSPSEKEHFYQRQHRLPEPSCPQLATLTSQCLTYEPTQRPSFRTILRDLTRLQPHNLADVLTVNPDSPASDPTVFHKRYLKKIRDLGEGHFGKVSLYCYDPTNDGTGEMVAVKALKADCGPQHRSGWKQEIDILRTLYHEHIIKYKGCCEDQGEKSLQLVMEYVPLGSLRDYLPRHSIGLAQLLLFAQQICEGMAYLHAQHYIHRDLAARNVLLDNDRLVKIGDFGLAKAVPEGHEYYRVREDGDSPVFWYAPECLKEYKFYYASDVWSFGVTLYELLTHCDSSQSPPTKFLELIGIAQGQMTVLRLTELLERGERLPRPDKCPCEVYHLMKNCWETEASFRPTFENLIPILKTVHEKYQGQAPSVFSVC
Chain of JAK 2 (O60674 whole entry): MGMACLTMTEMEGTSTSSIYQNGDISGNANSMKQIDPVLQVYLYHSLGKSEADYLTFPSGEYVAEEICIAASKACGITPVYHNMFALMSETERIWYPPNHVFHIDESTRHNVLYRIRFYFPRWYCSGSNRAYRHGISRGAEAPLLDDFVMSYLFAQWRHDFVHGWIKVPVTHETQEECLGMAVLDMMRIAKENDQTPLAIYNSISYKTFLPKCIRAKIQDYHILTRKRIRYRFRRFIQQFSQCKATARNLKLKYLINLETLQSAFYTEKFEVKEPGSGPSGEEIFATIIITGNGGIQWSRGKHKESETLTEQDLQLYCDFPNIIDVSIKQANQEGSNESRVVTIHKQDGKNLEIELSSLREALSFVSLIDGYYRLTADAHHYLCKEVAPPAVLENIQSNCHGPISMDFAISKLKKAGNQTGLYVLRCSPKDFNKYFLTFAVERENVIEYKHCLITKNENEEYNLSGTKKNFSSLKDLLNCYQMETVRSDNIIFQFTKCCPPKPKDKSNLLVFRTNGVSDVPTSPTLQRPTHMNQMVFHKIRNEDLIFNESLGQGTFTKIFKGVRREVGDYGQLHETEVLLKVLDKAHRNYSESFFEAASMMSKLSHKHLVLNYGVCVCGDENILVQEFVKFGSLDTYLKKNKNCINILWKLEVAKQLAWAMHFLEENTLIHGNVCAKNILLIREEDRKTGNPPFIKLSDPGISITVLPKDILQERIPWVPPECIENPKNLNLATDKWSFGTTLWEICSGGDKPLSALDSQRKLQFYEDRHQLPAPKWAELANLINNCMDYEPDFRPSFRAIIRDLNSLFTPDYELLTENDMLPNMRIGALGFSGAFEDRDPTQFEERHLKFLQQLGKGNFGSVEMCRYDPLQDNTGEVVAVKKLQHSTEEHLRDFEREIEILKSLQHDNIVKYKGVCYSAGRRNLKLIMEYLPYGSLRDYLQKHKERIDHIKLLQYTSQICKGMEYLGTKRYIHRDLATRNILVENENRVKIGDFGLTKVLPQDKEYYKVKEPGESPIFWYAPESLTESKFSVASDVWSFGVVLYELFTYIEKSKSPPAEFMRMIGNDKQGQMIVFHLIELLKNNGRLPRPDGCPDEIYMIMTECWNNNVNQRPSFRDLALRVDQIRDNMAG

Row | IC50 (JAK 1) [nM] | IC50 (JAK 2) [nM] | IC50 (JAK 3) [nM] | IC50 (TYK2) [nM] | Compound
1 | 5.01 to 50.1 | 5.01 to 50.1 | 5.01 to 50.1 | > 50.1 | COc1ccc(F)cc1-n1nc(C(=O)NCCCN(C)C)c2cnc(-c3cnn4cccnc34)cc21 [Example 38, N-(3-(dimethylamino)propyl)-1-(5-fluoro-2-methoxyphenyl)-6-(pyrazolo[1,5-a]pyrimidin-3-yl)-1H-pyrazolo[4,3-c]pyridine-3-carboxamide]
2 | 5.01 to 50.1 | ≤ 5.01 | 5.01 to 50.1 | > 50.1 | COc1ccc(S(=O)(=O)NCCO)cc1-n1nc(C)c2cnc(-c3cnn4cccnc34)cc21 [Example 15, N-(2-hydroxyethyl)-4-methoxy-3-(3-methyl-6-(pyrazolo[1,5-a]pyrimidin-3-yl)-1H-pyrazolo[4,3-c]pyridin-1-yl)benzenesulfonamide]
3 | 5.01 to 50.1 | ≤ 5.01 | 5.01 to 50.1 | 5.01 to 50.1 | CNCC(=O)Nc1nn(-c2cc(Cl)ccc2OC)c2cc(-c3cnn4cccnc34)ncc12 [Example 87, N-(1-(5-chloro-2-methoxyphenyl)-6-(pyrazolo[1,5-a]pyrimidin-3-yl)-1H-pyrazolo[4,3-c]pyridin-3-yl)-2-(methylamino)acetamide]
4 | 5.01 to 50.1 | 5.01 to 50.1 | 5.01 to 50.1 | 5.01 to 50.1 | COc1ccc(Cl)cc1-n1nc(OC)c2cnc(-c3cnn4cccnc34)cc21 [Example 50, 1-(5-chloro-2-methoxyphenyl)-3-methoxy-6-(pyrazolo[1,5-a]pyrimidin-3-yl)-1H-pyrazolo[4,3-c]pyridine]
5 | ≤ 5.01 | ≤ 5.01 | ≤ 5.01 | 5.01 to 50.1 | Cc1nn(-c2cc(SC3COC3)ccc2OC(F)F)c2cc(-c3cnn4cccnc34)ncc12 [Example 73, 1-(2-(difluoromethoxy)-5-(oxetan-3-ylthio)phenyl)-3-methyl-6-(pyrazolo[1,5-a]pyrimidin-3-yl)-1H-pyrazolo[4,3-c]pyridine]
6 | 5.01 to 50.1 | 5.01 to 50.1 | ≤ 5.01 | > 50.1 | Cc1nn(-c2cc(C(=O)Nc3nccs3)ccc2OC(F)F)c2cc(-c3cnn4cccnc34)ncc12 [Example 66, 4-(difluoromethoxy)-3-(3-methyl-6-(pyrazolo[1,5-a]pyrimidin-3-yl)-1H-pyrazolo[4,3-c]pyridin-1-yl)-N-(thiazol-2-yl)benzamide]
7 | 5.01 to 50.1 | ≤ 5.01 | 5.01 to 50.1 | > 50.1 | COc1cc(O)ccc1-n1nc(C)c2cnc(-c3cnn4cccnc34)cc21 [Example 27, 3-methoxy-4-(3-methyl-6-(pyrazolo[1,5-a]pyrimidin-3-yl)-1H-pyrazolo[4,3-c]pyridin-1-yl)phenol]
8 | > 50.1 | 5.01 to 50.1 | > 50.1 | > 50.1 | CNc1nc(-c2cnn3cccnc23)cc2c1cnn2-c1cc(Cl)ccc1OC [Example 52, 1-(5-chloro-2-methoxyphenyl)-N-methyl-6-(pyrazolo[1,5-a]pyrimidin-3-yl)-1H-pyrazolo[4,3-c]pyridin-4-amine]
9 | 5.01 to 50.1 | 5.01 to 50.1 | 5.01 to 50.1 | > 50.1 | COc1ccc(C)cc1-n1nc(NCCN(C)C)c2cnc(-c3cnn4cccnc34)cc21 [Example 45, N1-(1-(2-methoxy-5-methylphenyl)-6-(pyrazolo[1,5-a]pyrimidin-3-yl)-1H-pyrazolo[4,3-c]pyridin-3-yl)-N2,N2-dimethylethane-1,2-diamine]
10 | 5.01 to 50.1 | 5.01 to 50.1 | ≤ 5.01 | > 50.1 | Cc1nn(-c2cc(SC3CCOCC3)ccc2OC(F)F)c2cc(-c3cnn4cccnc34)ncc12 [Example 72, 1-(2-(difluoromethoxy)-5-((tetrahydro-2H-pyran-4-yl)thio)phenyl)-3-methyl-6-(pyrazolo[1,5-a]pyrimidin-3-yl)-1H-pyrazolo[4,3-c]pyridine]
11 | ≤ 5.01 | ≤ 5.01 | ≤ 5.01 | 5.01 to 50.1 | COc1ccc(Cl)cc1-n1nc(NC(C)=O)c2cnc(-c3cnn4cccnc34)cc21 [Example 40, N-(1-(5-chloro-2-methoxyphenyl)-6-(pyrazolo[1,5-a]pyrimidin-3-yl)-1H-pyrazolo[4,3-c]pyridin-3-yl)acetamide]
12 | 5.01 to 50.1 | 5.01 to 50.1 | 5.01 to 50.1 | > 50.1 | CNC(=O)CN(C)[C@H]1C[C@H](NC(=O)c2nn(-c3cc(Cl)ccc3OC)c3cc(-c4cnn5cccnc45)ncc23)C1 [Example 78, 1-(5-chloro-2-methoxyphenyl)-N-((1r,3r)-3-(methyl(2-(methylamino)-2-oxoethyl)amino)cyclobutyl)-6-(pyrazolo[1,5-a]pyrimidin-3-yl)-1H-pyrazolo[4,3-c]pyridine-3-carboxamide]
13 | 5.01 to 50.1 | 5.01 to 50.1 | > 50.1 | > 50.1 | COc1ccc(Cl)cc1-n1ncc2c(NC(C)=O)nc(-c3cnn4cccnc34)cc21 [Example 55, N-(1-(5-chloro-2-methoxyphenyl)-6-(pyrazolo[1,5-a]pyrimidin-3-yl)-1H-pyrazolo[4,3-c]pyridin-4-yl)acetamide]
14 | 5.01 to 50.1 | ≤ 5.01 | ≤ 5.01 | > 50.1 | COc1ccc(S(=O)(=O)NCCO)cc1-n1nc(C)c2cnc(Nc3ncc[nH]c3=O)cc21 [Example 92, N-(2-hydroxyethyl)-4-methoxy-3-(3-methyl-6-((3-oxo-3,4-dihydropyrazin-2-yl)amino)-1H-pyrazolo[4,3-c]pyridin-1-yl)benzenesulfonamide]
15 | ≤ 5.01 | ≤ 5.01 | ≤ 5.01 | 5.01 to 50.1 | Cc1nn(-c2cc(Cl)ccc2OC(F)F)c2cc(-c3cnn4cccnc34)ncc12 [Example 11, 1-(5-chloro-2-(difluoromethoxy)phenyl)-3-methyl-6-(pyrazolo[1,5-a]pyrimidin-3-yl)-1H-pyrazolo[4,3-c]pyridine]
16 | 5.01 to 50.1 | ≤ 5.01 | ≤ 5.01 | > 50.1 | Cc1nn(-c2cc(SCC(N)=O)ccc2OC(F)F)c2cc(-c3cnn4cccnc34)ncc12 [Example 68, 2-((4-(difluoromethoxy)-3-(3-methyl-6-(pyrazolo[1,5-a]pyrimidin-3-yl)-1H-pyrazolo[4,3-c]pyridin-1-yl)phenyl)thio)acetamide]
17 | 5.01 to 50.1 | ≤ 5.01 | ≤ 5.01 | 5.01 to 50.1 | COc1ccc(F)cc1-n1nc(C)c2cnc(Nc3ncc[nH]c3=O)cc21 [Example 90, 3-((1-(5-Fluoro-2-methoxyphenyl)-3-methyl-1H-pyrazolo[4,3-c]pyridin-6-yl)amino)pyrazin-2(1H)-one]
18 | 5.01 to 50.1 | 5.01 to 50.1 | ≤ 5.01 | 5.01 to 50.1 | Cc1ccc(OC(F)F)c(-n2nc(C)c3cnc(-c4cnn5cccnc45)cc32)c1 [Example 65, 1-(2-(difluoromethoxy)-5-methylphenyl)-3-methyl-6-(pyrazolo[1,5-a]pyrimidin-3-yl)-1H-pyrazolo[4,3-c]pyridine]
19 | ≤ 5.01 | ≤ 5.01 | ≤ 5.01 | 5.01 to 50.1 | COc1cc(O)c(C)cc1-n1nc(C)c2cnc(-c3cnn4cccnc34)cc21 [Example 60, 5-methoxy-2-methyl-4-(3-methyl-6-(pyrazolo[1,5-a]pyrimidin-3-yl)-1H-pyrazolo[4,3-c]pyridin-1-yl)phenol]
20 | ≤ 5.01 | ≤ 5.01 | ≤ 5.01 | 5.01 to 50.1 | Cc1nn(-c2cc(S(C)(=O)=O)ccc2OC(F)F)c2cc(Nc3ncc[nH]c3=O)ncc12 [Example 94, 3-((1-(2-(difluoromethoxy)-5-(methylsulfonyl)phenyl)-3-methyl-1H-pyrazolo[4,3-c]pyridin-6-yl)amino)pyrazin-2(1H)-one]

Reference: US20240279240A1, “HETEROCYCLIC DERIVATIVES AS JANUS KINASE INHIBITORS” (CHIESI FARMACEUTICI S.P.A., priority 2021, published 2024)
